Laboratory results taken from PMC10354048 (Communications Chemistry, 2023).
Where no end group is shown, it is not given here. [ ]: non-standard residue; d: D form.

Experiments:
Assay in all cases: microbe, parasite or virus in culture
[1] = system: E. faecalis CW133003; conditions: broth microdilution per CSLI guidelines, Brain Heart Infusion broth, 5 × 10^5 CFU/mL, 37 °C, 20 h, range 64–0.125 µg/mL, average of three repeat assays
Procedure: (§1) Minimum inhibitory concentrations, determined by broth microdilution, are expressed as an average of three repeat assays. […] [a] MIC values expressed in μg/mL, [b] AC: American Type Culture Collection strain, [c] CW: CANWARD collection clinical isolate strain.33.
(§2) Minimum Inhibitory Concentrations (MIC) were determined for each of the bacteriocins and controls using a broth microdilution method, as per CSLI guidelines for microbial susceptibility testing. The peptides were dissolved in sterile deionized water to prepare the working stocks, with concentrations determined by UV absorbance at 280 nm[56]. Overnight cultures from the strains of interest were incubated with shaking overnight at 37 °C. Cation-adjusted Mueller Hinton Broth 2 (MHB 2) was used for the S. aureus, and S. epidermidis strains and Brain Heart Infusion (BHI) broth was utilized for the E. faecalis and E. faecium strains. The cultures were prepared and diluted to the turbidity of a 0.5 McFarland standard using MHB or BHI fresh media. Increasing concentrations of the leaderless bacteriocins were added to a 96-well polypropylene plate. The range tested for each bacteriocin was 64–0.125 µg/mL. The bacterial culture was further diluted and mixed in a 1:1 ratio with the bacteriocin solution to yield a final concentration in the wells of 5 × 10^5 CFU/mL. […] A 1:1000 dilution of the growth control was prepared in the respective media and plated onto agar (100 μL) to ensure the correct inoculum concentration (5 × 10^5 CFU/mL indicated by ≈ 50 bacterial colonies). The 96-well and agar plates were incubated at 37 °C, and growth was assessed by the formation of a pellet observable with the naked eye after 20 h. […] Each assay was performed in triplicate.
(§3) Materials and instruments […]
(§4) Minimum Inhibitory Concentration (MIC)
(§5) assays were conducted in 96-Well Clear polypropylene corner notch microplates (Corning, #11313595). For the […]

[2] = system: S. aureus AC29213; conditions: broth microdilution per CSLI guidelines, cation-adjusted Mueller Hinton Broth 2, 5 × 10^5 CFU/mL, 37 °C, 20 h, range 64–0.125 µg/mL, average of three repeat assays
Procedure: as §1, §2, §3, §4, §5

[3] = system: S. aureus CW113379; conditions: broth microdilution per CSLI guidelines, cation-adjusted Mueller Hinton Broth 2, 5 × 10^5 CFU/mL, 37 °C, 20 h, range 64–0.125 µg/mL, average of three repeat assays
Procedure: as §1, §2, §3, §4, §5

[4] = system: S. aureus CW114125; conditions: broth microdilution per CSLI guidelines, cation-adjusted Mueller Hinton Broth 2, 5 × 10^5 CFU/mL, 37 °C, 20 h, range 64–0.125 µg/mL, average of three repeat assays
Procedure: as §1, §2, §3, §4, §5

[5] = system: S. aureus CW115852; conditions: broth microdilution per CSLI guidelines, cation-adjusted Mueller Hinton Broth 2, 5 × 10^5 CFU/mL, 37 °C, 20 h, range 64–0.125 µg/mL, average of three repeat assays
Procedure: as §1, §2, §3, §4, §5

[6] = system: S. epidermidis CW131612; conditions: broth microdilution per CSLI guidelines, cation-adjusted Mueller Hinton Broth 2, 5 × 10^5 CFU/mL, 37 °C, 20 h, range 64–0.125 µg/mL, average of three repeat assays
Procedure: as §1, §2, §3, §4, §5

[7] = system: E. faecalis CW133346; conditions: broth microdilution per CSLI guidelines, Brain Heart Infusion broth, 5 × 10^5 CFU/mL, 37 °C, 20 h, range 64–0.125 µg/mL, triplicate
Procedure: as §2, §3
(§6) Minimum Inhibitory Concentration (MIC) assays were conducted in 96-Well Clear polypropylene corner notch microplates (Corning, #11313595). For the assay media, cation adjusted Mueller Hinton Broth 2 (Sigma Aldrich, #90922) was used for the S. aureus, and S. epidermidis strains and Brain Heart Infusion broth (BD, #221812) was used for the E. faecalis and E. faecium […]
(§7) used, as well as melittin prepared by automated SPPS. Experimental bacterial strains used were procured from the American Type Culture collection (S. aureus 29213) and the Canadian Antimicrobial Resistance Alliance

[8] = system: E. faecium CW130826; conditions: broth microdilution per CSLI guidelines, Brain Heart Infusion broth, 5 × 10^5 CFU/mL, 37 °C, 20 h, range 64–0.125 µg/mL, triplicate
Procedure: as §2, §3, §6, §7

[9] = system: E. faecium CW131126; conditions: broth microdilution per CSLI guidelines, Brain Heart Infusion broth, 5 × 10^5 CFU/mL, 37 °C, 20 h, range 64–0.125 µg/mL, triplicate
Procedure: as §2, §3, §6, §7

[10] = system: S. epidermidis CW130500; conditions: broth microdilution per CSLI guidelines, cation-adjusted Mueller Hinton Broth 2, 5 × 10^5 CFU/mL, 37 °C, 20 h, range 64–0.125 µg/mL, triplicate
Procedure: as §2, §3, §6, §7

Substance | Minimum inhibitory concentration E. faecalis CW133003 [1] | Minimum inhibitory concentration S. aureus AC29213 [2] | Minimum inhibitory concentration S. aureus CW113379 [3] | Minimum inhibitory concentration S. aureus CW114125 [4] | Minimum inhibitory concentration S. aureus CW115852 [5] | Minimum inhibitory concentration S. epidermidis CW131612 [6] | Minimum inhibitory concentration E. faecalis CW133346 [7] | Minimum inhibitory concentration E. faecium CW130826 [8] | Minimum inhibitory concentration E. faecium CW131126 [9] | Minimum inhibitory concentration S. epidermidis CW130500 [10]
MSLLNFLKYIAKYGKKAVSAAWKYKGKVLEWLNVGPTLEWVWQKLKKIAGL-NH2 [L-W3L, L-aureocin A53 W3L (Met^1-Leu^51)] | 16 µg/mL | 4 µg/mL | 4 µg/mL | 4 µg/mL | 32 µg/mL | 4 µg/mL | 4 µg/mL | 2 µg/mL | 4 µg/mL | 4 µg/mL
MAGFLKVVQLLAKYGSKAVQLAWANKGKILDWLNAGQAIDWVVSKIKQILGIK-NH2 [L-W21L, L-lacticin Q W21L (Met^1-Lys^53)] | 8 µg/mL | 16 µg/mL | 16 µg/mL | 32 µg/mL | 32 µg/mL | 16 µg/mL | 4 µg/mL | 4 µg/mL | 4 µg/mL | 16 µg/mL
[dM][dA]G[dF][dL][dK][dV][dV][dQ][dL][dL][dA][dK][dY]G[dS][dK][dA][dV][dQ][dW][dA][dW][dA][dN][dK]G[dK][dI][dL][dD][dW][dL][dN][dA]G[dQ][dA][dI][dD][dW][dV][dV][dS][dK][dI][dK][dQ][dI][dL]G[dI][dK]-NH2 [D-LnqQ, D-lacticin Q (Met^1-Lys^53)] | 2 µg/mL | 4 µg/mL | 4 µg/mL | 8 µg/mL | 4 µg/mL | 4 µg/mL | 2 µg/mL | 2 µg/mL | 2 µg/mL | 4 µg/mL
MAGFLKVVQLLAKYGSKAVQWAWANKGKILDLLNAGQAIDWVVSKIKQILGIK-NH2 (C-terminus assumed) [L-W32L, L-lacticin Q W32L (Met^1-Lys^53)] | 4 µg/mL | 64 µg/mL | 32 µg/mL | 64 µg/mL | 32 µg/mL | 16 µg/mL | 4 µg/mL | 2 µg/mL | 4 µg/mL | 16 µg/mL
